Test results published in article PMC11676667, “Pharmacokinetics of Oral Cannabinoid Δ8-Tetrahydrocannabivarin and Its Main Metabolites in Healthy Participants” (Pharmaceuticals, 2024).
Read-outs that look alike come from different tables or passages of the source.

Experiments:
[1] = Plasma pharmacokinetics after single oral dose of Δ8-THCV in MCT oil (LC-MS/MS, non-compartmental analysis); assay type: in vivo, human; set-up: Clast (last quantifiable concentration): unit not given here; details: for plasma concentration: Predose; for concentration at 0.5 h / concentration at 1 h / concentration at 2 h / concentration at 4 h / concentration at 6 h / concentration at 8 h / AUC(0-t) / Cmax / MRT / Tmax: human; for concentration at 0.5 h / concentration at 1 h / concentration at 2 h / concentration at 4 h / concentration at 6 h / concentration at 8 h: oral; for AUC(0-t) / Cmax / MRT / Tmax: po; for MRT: read-out: MRT (mean residence time); for Tmax: read-out: tmax
Method in brief: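 Healthy participants received single oral Δ8-THCV in MCT oil (50 mg/mL; 12.5-200 mg, or placebo) after a high-fat, high-calorie breakfast, with ≥1-week washout. Plasma (K2EDTA) sampled predose and 0.5-8 h post-dose, assayed by validated LC-MS/MS including metabolites; PK by non-compartmental analysis, sub-LLOQ values set to 0.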

CB2 receptors = system: CB2 receptors; set-up: method as in PMID 21470208; details: in vitro; cited from earlier work
[2] = 12.5 mg single oral Δ8-THCV in MCT oil, plasma, Mean (±SD)
[3] = 12.5 mg single oral Δ8-THCV in MCT oil, plasma, Median (Range)
[4] = 25 mg single oral Δ8-THCV in MCT oil, plasma, Mean (±SD)
[5] = 25 mg single oral Δ8-THCV in MCT oil, plasma, Median (Range)
[6] = 50 mg single oral Δ8-THCV in MCT oil, plasma, Mean (±SD)
[7] = 50 mg single oral Δ8-THCV in MCT oil, plasma, Median (Range)
[8] = 100 mg single oral Δ8-THCV in MCT oil, plasma, Mean (±SD)
[9] = 100 mg single oral Δ8-THCV in MCT oil, plasma, Median (Range)
[10] = 200 mg single oral Δ8-THCV in MCT oil, plasma, Mean (±SD)
[11] = 200 mg single oral Δ8-THCV in MCT oil, plasma, Median (Range)
[12] = plasma, 12.5 mg, 12.5 mg Δ8-THCV dose, Mean (SD, %CV)
[13] = plasma, 12.5 mg, 12.5 mg Δ8-THCV dose, Median (IQ Range)
[14] = plasma, 25 mg, 25 mg Δ8-THCV dose, Mean (SD, %CV)
[15] = plasma, 25 mg, 25 mg Δ8-THCV dose, Median (IQ Range)
[16] = plasma, 50 mg, 50 mg Δ8-THCV dose, Mean (SD, %CV)
[17] = plasma, 50 mg, 50 mg Δ8-THCV dose, Median (IQ Range)
[18] = plasma, 100 mg, 100 mg Δ8-THCV dose, Mean (SD, %CV)
[19] = plasma, 100 mg, 100 mg Δ8-THCV dose, Median (IQ Range)
[20] = plasma, 200 mg, 200 mg Δ8-THCV dose, Mean (SD, %CV)
[21] = plasma, 200 mg, 200 mg Δ8-THCV dose, Median (IQ Range)
[22] = plasma, 12.5 mg, 12.5 mg single oral Δ8-THCV in MCT oil, Mean (±SD)
[23] = plasma, 12.5 mg, 12.5 mg single oral Δ8-THCV in MCT oil, Median (Range)
[24] = plasma, 12.5 mg, 12.5 mg single oral Δ8-THCV in MCT oil, plasma, Mean (±SD)
[25] = plasma, 12.5 mg, 12.5 mg single oral Δ8-THCV in MCT oil, plasma, Median (Range)
[26] = plasma, 25 mg, 25 mg single oral Δ8-THCV in MCT oil, Mean (±SD)
[27] = plasma, 25 mg, 25 mg single oral Δ8-THCV in MCT oil, Median (Range)
[28] = plasma, 25 mg, 25 mg single oral Δ8-THCV in MCT oil, plasma, Mean (±SD)
[29] = plasma, 25 mg, 25 mg single oral Δ8-THCV in MCT oil, plasma, Median (Range)
[30] = plasma, 50 mg, 50 mg single oral Δ8-THCV in MCT oil, Mean (±SD)
[31] = plasma, 50 mg, 50 mg single oral Δ8-THCV in MCT oil, Median (Range)
[32] = plasma, 50 mg, 50 mg single oral Δ8-THCV in MCT oil, plasma, Mean (±SD)
[33] = plasma, 50 mg, 50 mg single oral Δ8-THCV in MCT oil, plasma, Median (Range)
[34] = plasma, 100 mg, 100 mg single oral Δ8-THCV in MCT oil, Mean (±SD)
[35] = plasma, 100 mg, 100 mg single oral Δ8-THCV in MCT oil, Median (Range)
[36] = plasma, 100 mg, 100 mg single oral Δ8-THCV in MCT oil, plasma, Mean (±SD)
[37] = plasma, 100 mg, 100 mg single oral Δ8-THCV in MCT oil, plasma, Median (Range)
[38] = plasma, 200 mg, 200 mg single oral Δ8-THCV in MCT oil, Mean (±SD)
[39] = plasma, 200 mg, 200 mg single oral Δ8-THCV in MCT oil, Median (Range)
[40] = plasma, 200 mg, 200 mg single oral Δ8-THCV in MCT oil, plasma, Mean (±SD)
[41] = plasma, 200 mg, 200 mg single oral Δ8-THCV in MCT oil, plasma, Median (Range)

CCCc1cc(O)c2c(c1)OC(C)(C)[C@@H]1CC=C(CO)C[C@@H]21 (racemic) [11-OH-Δ8-THCV, (±)-11-hydroxy-Δ8-THCV]
Clast (last quantifiable concentration) [1, 2]: 0.8 (±0.2) | tlast (time to last quantifiable concentration) [1, 2]: 3.6 (±1.7) | Clast (last quantifiable concentration) [1, 3]: 0.8 (0.6–1.1) | tlast (time to last quantifiable concentration) [1, 3]: 4 (2–6) | Clast (last quantifiable concentration) [1, 4]: 0.8 (±0.1) | tlast (time to last quantifiable concentration) [1, 4]: 4.3 (±1.8) | Clast (last quantifiable concentration) [1, 5]: 0.8 (0.6–1) | tlast (time to last quantifiable concentration) [1, 5]: 4 (2–6) | Clast (last quantifiable concentration) [1, 6]: 0.9 (±0.3) | tlast (time to last quantifiable concentration) [1, 6]: 7.8 (±0.6) | Clast (last quantifiable concentration) [1, 7]: 0.8 (0.6–1.5) | tlast (time to last quantifiable concentration) [1, 7]: 8 (6–8) | Clast (last quantifiable concentration) [1, 8]: 1.4 (±0.9) | tlast (time to last quantifiable concentration) [1, 8]: 7.6 (±1.2) | Clast (last quantifiable concentration) [1, 9]: 1.1 (0.5–3.8) | tlast (time to last quantifiable concentration) [1, 9]: 8 (4–8) | Clast (last quantifiable concentration) [1, 10]: 3.7 (±2.6) | tlast (time to last quantifiable concentration) [1, 10]: 8 (±0) | Clast (last quantifiable concentration) [1, 11]: 3.1 (1.2–11.3) | tlast (time to last quantifiable concentration) [1, 11]: 8 (8–8) | plasma concentration ([1]; 12.5 mg Δ8-THCV dose, Mean (SD, %CV)): 0 (±0, --) ng/mL | plasma concentration ([1]; 12.5 mg Δ8-THCV dose, Median (IQ Range)): 0 (0–0) ng/mL | plasma concentration ([1]; 25 mg Δ8-THCV dose, Mean (SD, %CV)): 0 (±0, --) ng/mL | plasma concentration ([1]; 25 mg Δ8-THCV dose, Median (IQ Range)): 0 (0–0) ng/mL | plasma concentration ([1]; 50 mg Δ8-THCV dose, Mean (SD, %CV)): 0 (±0, --) ng/mL | plasma concentration ([1]; 50 mg Δ8-THCV dose, Median (IQ Range)): 0 (0–0) ng/mL | plasma concentration ([1]; 100 mg Δ8-THCV dose, Mean (SD, %CV)): 0 (±0, --) ng/mL | plasma concentration ([1]; 100 mg Δ8-THCV dose, Median (IQ Range)): 0 (0–0) ng/mL | plasma concentration ([1]; 200 mg Δ8-THCV dose, Mean (SD, %CV)): 0 (±0, --) ng/mL | plasma concentration ([1]; 200 mg Δ8-THCV dose, Median (IQ Range)): 0 (0–0) ng/mL | median AUClast ratio Δ8-THCV-COOH/Δ8-THCV/11-OH-Δ8-THCV ([1]; after the 200 mg dose, Δ8-THCV = 1): 0.18 | concentration at 0.5 h [1, 12]: 0 ng/mL | concentration at 0.5 h [1, 13]: 0 ng/mL | concentration at 1 h [1, 12]: 0 ng/mL | concentration at 1 h [1, 13]: 0 ng/mL | concentration at 2 h [1, 12]: 0.1 ng/mL | concentration at 2 h [1, 13]: 0 ng/mL | concentration at 4 h [1, 12]: 0.1 ng/mL | concentration at 4 h [1, 13]: 0 ng/mL | concentration at 6 h [1, 12]: 0.1 ng/mL | concentration at 6 h [1, 13]: 0 ng/mL | concentration at 8 h [1, 12]: 0 ng/mL | concentration at 8 h [1, 13]: 0 ng/mL | concentration at 0.5 h [1, 14]: 0 ng/mL | concentration at 0.5 h [1, 15]: 0 ng/mL | concentration at 1 h [1, 14]: 0.1 ng/mL | concentration at 1 h [1, 15]: 0 ng/mL | concentration at 2 h [1, 14]: 0.3 ng/mL | concentration at 2 h [1, 15]: 0 ng/mL | concentration at 4 h [1, 14]: 0.2 ng/mL | concentration at 4 h [1, 15]: 0 ng/mL | concentration at 6 h [1, 14]: 0.2 ng/mL | concentration at 6 h [1, 15]: 0 ng/mL | concentration at 8 h [1, 14]: 0 ng/mL | concentration at 8 h [1, 15]: 0 ng/mL | concentration at 0.5 h [1, 16]: 0 ng/mL | concentration at 0.5 h [1, 17]: 0 ng/mL | concentration at 1 h [1, 16]: 0.1 ng/mL | concentration at 1 h [1, 17]: 0 ng/mL | concentration at 2 h [1, 16]: 0.4 ng/mL | concentration at 2 h [1, 17]: 0 ng/mL | concentration at 4 h [1, 16]: 0.6 ng/mL | concentration at 4 h [1, 17]: 0 ng/mL | concentration at 6 h [1, 16]: 1 ng/mL | concentration at 6 h [1, 17]: 0.9 ng/mL | concentration at 8 h [1, 16]: 0.6 ng/mL | concentration at 8 h [1, 17]: 0.6 ng/mL | concentration at 0.5 h [1, 18]: 0 ng/mL | concentration at 0.5 h [1, 19]: 0 ng/mL | concentration at 1 h [1, 18]: 1.4 ng/mL | concentration at 1 h [1, 19]: 0.5 ng/mL | concentration at 2 h [1, 18]: 1.8 ng/mL | concentration at 2 h [1, 19]: 1 ng/mL | concentration at 4 h [1, 18]: 2.1 ng/mL | concentration at 4 h [1, 19]: 1.3 ng/mL | concentration at 6 h [1, 18]: 2.4 ng/mL | concentration at 6 h [1, 19]: 1.5 ng/mL | concentration at 8 h [1, 18]: 1.3 ng/mL | concentration at 8 h [1, 19]: 1.1 ng/mL | concentration at 0.5 h [1, 20]: 0 ng/mL | concentration at 0.5 h [1, 21]: 0 ng/mL | concentration at 1 h [1, 20]: 1.2 ng/mL | concentration at 1 h [1, 21]: 0 ng/mL | concentration at 2 h [1, 20]: 4.5 ng/mL | concentration at 2 h [1, 21]: 1.8 ng/mL | concentration at 4 h [1, 20]: 5.2 ng/mL | concentration at 4 h [1, 21]: 3.4 ng/mL | concentration at 6 h [1, 20]: 4.6 ng/mL | concentration at 6 h [1, 21]: 3.7 ng/mL | concentration at 8 h [1, 20]: 3.7 ng/mL | concentration at 8 h [1, 21]: 3.1 ng/mL | AUC(0-t) [1, 22]: 0.7 ng·h/mL | Cmax [1, 22]: 0.8 ng/mL | AUC(0-t) [1, 23]: 0.8 ng·h/mL | Cmax [1, 23]: 0.8 ng/mL | MRT [1, 24]: 1.5 h | Tmax [1, 24]: 3.4 h | MRT [1, 25]: 1.4 h | Tmax [1, 25]: 4 h | AUC(0-t) [1, 26]: 1.5 ng·h/mL | Cmax [1, 26]: 0.9 ng/mL | AUC(0-t) [1, 27]: 0.8 ng·h/mL | Cmax [1, 27]: 0.8 ng/mL | MRT [1, 28]: 3.6 h | Tmax [1, 28]: 3.7 h | MRT [1, 29]: 3.6 h | Tmax [1, 29]: 4 h | AUC(0-t) [1, 30]: 6.2 ng·h/mL | Cmax [1, 30]: 2 ng/mL | AUC(0-t) [1, 31]: 5.3 ng·h/mL | Cmax [1, 31]: 1.9 ng/mL | MRT [1, 32]: 5.7 h | Tmax [1, 32]: 5 h | MRT [1, 33]: 6.1 h | Tmax [1, 33]: 6 h | AUC(0-t) [1, 34]: 13.9 ng·h/mL | Cmax [1, 34]: 4.3 ng/mL | AUC(0-t) [1, 35]: 12.4 ng·h/mL | Cmax [1, 35]: 3.4 ng/mL | MRT [1, 36]: 4.6 h | Tmax [1, 36]: 4.2 h | MRT [1, 37]: 4.3 h | Tmax [1, 37]: 5 h | AUC(0-t) [1, 38]: 30.8 ng·h/mL | Cmax [1, 38]: 8.7 ng/mL | AUC(0-t) [1, 39]: 29.5 ng·h/mL | Cmax [1, 39]: 6.4 ng/mL | MRT [1, 40]: 4.8 h | Tmax [1, 40]: 4.7 h | MRT [1, 41]: 4.7 h | Tmax [1, 41]: 4 h | number of positive plasma samples ([1]; of 504 plasma samples from 15 participants after oral Δ8-THCV): 157 | concentration in representative plasma sample ([1]; one subject after oral Δ8-THCV in MCT oil, Figure A1): 11.8 ng/mL | tmax later after doses greater than 50 mg compared to the 12.5 mg and 25 mg doses ([1]; oral Δ8-THCV, plasma): 1.3 fold | CB2 receptor activation (CB2 receptors): activate CB2 receptors
